PubChem BioAssay AID248 (DTP/NCI, 2004)
Where “and” joins values, the source holds several entries; their conditions need not be identical. Equal values may be shown once. Inconclusive results and toxic doses are left out. Rule as the data show it: active = T/C of 150% or more; inactive = T/C below 125%.

Test system: L1210 leukemia ip in BDF1 mice, survival T/C
Test: NCI In Vivo Anticancer Drug Screen. Data for tumor model L1210 Leukemia (intraperitoneal) in B6D2F1 (BDF1) mice
Settings: endpoint: mean survival time, higher = longer survival
Summary of the method: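 Mice bearing the transplanted tumor received compound or vehicle. Survival of the treated group was divided by that of the vehicle-treated control group to give the ratio.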

[1] = dose: 100.0 mg/kg/injection, schedule: Q01DX009 (ip), vehicle: Klucel (hydroxypropylcellulose) (HPC)
[2] = dose: 200.0 mg/kg/injection, schedule: Q01DX009 (ip), vehicle: Klucel (hydroxypropylcellulose) (HPC)
[3] = dose: 400.0 mg/kg/injection, schedule: Q01DX009 (ip), vehicle: Klucel (hydroxypropylcellulose) (HPC)
[4] = dose: 100.0 mg/kg/injection, schedule: Q04DX003 (ip), vehicle: Klucel (hydroxypropylcellulose) (HPC)
[5] = dose: 200.0 mg/kg/injection, schedule: Q04DX003 (ip), vehicle: Klucel (hydroxypropylcellulose) (HPC)
[6] = dose: 400.0 mg/kg/injection, schedule: Q04DX003 (ip), vehicle: Klucel (hydroxypropylcellulose) (HPC)
[7] = dose: 25.0 mg/kg/injection, schedule: Q01DX009 (ip), vehicle: saline
[8] = dose: 50.0 mg/kg/injection, schedule: Q01DX009 (ip), vehicle: saline
[9] = dose: 100.0 mg/kg/injection, schedule: Q01DX009 (ip), vehicle: saline
[10] = dose: 100.0 mg/kg/injection, schedule: Q04DX003 (ip), vehicle: saline
[11] = dose: 100.0 mg/kg/injection, schedule: Q01DX001 (ip), vehicle: saline
[12] = dose: 200.0 mg/kg/injection, schedule: Q01DX001 (ip), vehicle: saline
[13] = dose: 100.0 mg/kg/injection, schedule: Q04DX002 (ip), vehicle: Klucel (hydroxypropylcellulose) (HPC)
[14] = dose: 200.0 mg/kg/injection, schedule: Q04DX002 (ip), vehicle: Klucel (hydroxypropylcellulose) (HPC)
[15] = dose: 400.0 mg/kg/injection, schedule: Q04DX002 (ip), vehicle: Klucel (hydroxypropylcellulose) (HPC)
[16] = dose: 200.0 mg/kg/injection, schedule: Q04DX003 (ip), vehicle: saline
[17] = dose: 400.0 mg/kg/injection, schedule: Q04DX003 (ip), vehicle: saline

Measured: T/C

COc1ccc(S(=O)(=O)Nc2cc([N+](=O)[O-])ccc2C)cc1
inactive: [1] 100 % of control | [2] 100 % of control | [3] 98 % of control

COC(=O)c1nc(Cl)nc(SC)c1Cl
inactive: [4] 96 % of control | [5] 110 % of control | [6] 96 % of control

CC(=O)N1C(=O)C(Cl)C(Cl)C(=O)N1C(C)=O (stereo not given)
inactive: [4] 89 % of control | [5] 89 % of control

COC(C(=O)O)c1cccs1 (stereo not given)
inactive: dose: 50.0 mg/kg/injection, schedule: Q01DX009 (ip), vehicle: saline with Tween-80 91 % of control | dose: 100.0 mg/kg/injection, schedule: Q01DX009 (ip), vehicle: saline with Tween-80 86 % of control | dose: 200.0 mg/kg/injection, schedule: Q01DX009 (ip), vehicle: saline with Tween-80 100 % of control

N#CC(C#N)N=Nc1ccc(S(=O)(=O)Nc2ccccn2)cc1
inactive: dose: 75.0 mg/kg/injection, schedule: Q01DX001 (ip), vehicle: saline 95 % of control | dose: 150.0 mg/kg/injection, schedule: Q01DX001 (ip), vehicle: saline 90 % of control

CNCC(C)(C)c1ccccc1
inactive: dose: 6.25 mg/kg/injection, schedule: Q01DX009 (ip), vehicle: saline 101 % of control | dose: 12.5 mg/kg/injection, schedule: Q01DX009 (ip), vehicle: saline 101 % of control | [7] 102 % of control | dose: 25.0 mg/kg/injection, schedule: Q04DX003 (ip), vehicle: saline 104 % of control | [8] 107 % of control | dose: 50.0 mg/kg/injection, schedule: Q04DX003 (ip), vehicle: saline 104 % of control | [9] 104 % of control | [10] 106 % of control

CCCC1(c2ccccc2)C(C#N)C(=O)NC(=O)C1C#N (stereo not given)
inactive: [11] 101 % of control | [12] 97 % of control

COc1ccc(Oc2cccc3cnccc23)cc1
inactive: [13] 102 % of control | [14] 91 % of control | [15] 94 % of control

COC(=O)CCC(C)C1CCC2(C)C3=C(C(=O)CC12C)C1(C)CCC(O)C(C)(C)C1=C(O)C3 (stereo not given)
inactive: [10] 91 % of control | [16] 93 % of control | [17] 91 % of control

CN(C)/C(=C/c1ccccc1)CS(=O)(=O)N(C)C
inactive: dose: 75.0 mg/kg/injection, schedule: Q01DX001 (ip), vehicle: carboxymethylcellulose (CMC) 106 % of control | dose: 150.0 mg/kg/injection, schedule: Q01DX001 (ip), vehicle: carboxymethylcellulose (CMC) 97 % of control | dose: 300.0 mg/kg/injection, schedule: Q01DX001 (ip), vehicle: carboxymethylcellulose (CMC) 89 % of control

CCOC(=O)c1c(C)[nH]c2c1C(=O)C(=O)C=C2
inactive: [11] 90 % of control

N#Cc1ccc(/C=N\NC(=O)CCCC(=O)N/N=C/c2ccc(C#N)cc2)cc1
inactive: dose: 50.0 mg/kg/injection, schedule: Q01DX001 (ip), vehicle: other 91 % of control | dose: 100.0 mg/kg/injection, schedule: Q01DX001 (ip), vehicle: other 91 % of control | dose: 400.0 mg/kg/injection, schedule: Q01DX001 (ip), vehicle: other 91 % of control

Cc1cc2nc(N)sc2cc1C
inactive: dose: 25.0 mg/kg/injection, schedule: Q01DX009 (ip), vehicle: Klucel (hydroxypropylcellulose) (HPC) 101 % of control | dose: 50.0 mg/kg/injection, schedule: Q04DX003 (ip), vehicle: Klucel (hydroxypropylcellulose) (HPC) 100 % of control | [4] 89 % of control

Cn1[nH]c(=O)[nH]c1=O
inactive: dose: 100.0 mg/kg/injection, schedule: Q04DX002 (ip), vehicle: saline 103 % of control | dose: 100.0 mg/kg/injection, schedule: Q04DX003 (ip), vehicle: saline with Tween-80 98 % of control and 87 % of control | dose: 200.0 mg/kg/injection, schedule: Q04DX002 (ip), vehicle: saline 100 % of control | dose: 200.0 mg/kg/injection, schedule: Q04DX003 (ip), vehicle: saline with Tween-80 93 % of control | dose: 400.0 mg/kg/injection, schedule: Q04DX002 (ip), vehicle: saline 103 % of control | dose: 400.0 mg/kg/injection, schedule: Q04DX003 (ip), vehicle: saline with Tween-80 90 % of control

COC1OC2COc3ccccc3OC2C(N=C(N)N[N+](=O)[O-])C1O (stereo not given)
inactive: dose: 100.0 mg/kg/injection, schedule: Q01DX009 (ip), vehicle: gum acacia 97 % of control | dose: 200.0 mg/kg/injection, schedule: Q01DX009 (ip), vehicle: gum acacia 100 % of control | dose: 400.0 mg/kg/injection, schedule: Q01DX009 (ip), vehicle: gum acacia 95 % of control

CC(C)(C)C(=O)CC(=O)C(C)(C)C.CC(C)(C)C(=O)CC(=O)C(C)(C)C.[Cu]
inactive: dose: 75.0 mg/kg/injection, schedule: Q01DX001 (ip), vehicle: other 103 % of control | dose: 150.0 mg/kg/injection, schedule: Q01DX001 (ip), vehicle: other 94 % of control

Cc1nc2ccc(NC(=O)c3ccccc3)cc2o1
inactive: [4] 105 % of control | [5] 105 % of control | [6] 100 % of control

COc1ccc2c(O)coc2c1
inactive: [1] 100 % of control | [4] 104 % of control | [2] 101 % of control | [5] 102 % of control | [3] 96 % of control | [6] 93 % of control

CCCCCCCCCCCCCCCCOc1ccc(F)cc1
inactive: [13] 103 % of control | [14] 118 % of control | [15] 107 % of control

CC(=O)OCCS(=O)(=O)CCc1ccccc1
inactive: dose: 62.5 mg/kg/injection, schedule: Q01DX009 (ip), vehicle: Klucel (hydroxypropylcellulose) (HPC) 96 % of control | dose: 125.0 mg/kg/injection, schedule: Q01DX009 (ip), vehicle: Klucel (hydroxypropylcellulose) (HPC) 100 % of control | dose: 250.0 mg/kg/injection, schedule: Q01DX009 (ip), vehicle: Klucel (hydroxypropylcellulose) (HPC) 98 % of control

CN(CCN(C)CP(c1ccccc1)c1ccccc1)CP(c1ccccc1)c1ccccc1
inactive: dose: 100.0 mg/kg/injection, schedule: Q04DX002 (sc), vehicle: olive oil, sesame oil, peanut oil 96 % of control | dose: 200.0 mg/kg/injection, schedule: Q04DX002 (sc), vehicle: olive oil, sesame oil, peanut oil 104 % of control | dose: 400.0 mg/kg/injection, schedule: Q04DX002 (sc), vehicle: olive oil, sesame oil, peanut oil 110 % of control

N=C(N)SCc1ccc(C(=O)Oc2ccc([N+](=O)[O-])cc2)cc1
inactive: [7] 97 % of control | [8] 100 % of control and 103 % of control | [9] 106 % of control | [10] 101 % of control | [16] 98 % of control

CCCCn1c(=S)[nH]c2ccccc2c1=O
inactive: [1] 100 % of control | [4] 98 % of control | [2] 94 % of control | [5] 95 % of control | [3] 96 % of control | [6] 92 % of control

NC(=O)N1OCC(N)C1=O (stereo not given)
inactive: [9] 101 % of control | [10] 108 % of control | dose: 200.0 mg/kg/injection, schedule: Q01DX009 (ip), vehicle: saline 87 % of control | [16] 98 % of control | dose: 400.0 mg/kg/injection, schedule: Q01DX009 (ip), vehicle: saline 95 % of control | [17] 97 % of control

CCN(CC)CCCC(C)n1nnc2cc(Cl)ccc21 (stereo not given)
inactive: [11] 97 % of control | [12] 97 % of control

CN(C)c1ccccc1C(=O)N/N=C\c1ccc(-c2ccccc2)cc1
inactive: [13] 87 % of control | [14] 100 % of control | [15] 117 % of control
